Reference: ChEMBL document CHEMBL3991601, “The target landscape of clinical kinase drugs” (Science, 2017)
Calls of active or inactive are those of the source. Rule as the data show it, for most assays here: actives have a measured Kd and inactives only a lower limit.

Key:
[1] = molecular target: T1, Phenylalanine--tRNA ligase beta subunit (Homo sapiens, UniProt Q9NSD9)
T1 sequence (Q9NSD9 whole entry): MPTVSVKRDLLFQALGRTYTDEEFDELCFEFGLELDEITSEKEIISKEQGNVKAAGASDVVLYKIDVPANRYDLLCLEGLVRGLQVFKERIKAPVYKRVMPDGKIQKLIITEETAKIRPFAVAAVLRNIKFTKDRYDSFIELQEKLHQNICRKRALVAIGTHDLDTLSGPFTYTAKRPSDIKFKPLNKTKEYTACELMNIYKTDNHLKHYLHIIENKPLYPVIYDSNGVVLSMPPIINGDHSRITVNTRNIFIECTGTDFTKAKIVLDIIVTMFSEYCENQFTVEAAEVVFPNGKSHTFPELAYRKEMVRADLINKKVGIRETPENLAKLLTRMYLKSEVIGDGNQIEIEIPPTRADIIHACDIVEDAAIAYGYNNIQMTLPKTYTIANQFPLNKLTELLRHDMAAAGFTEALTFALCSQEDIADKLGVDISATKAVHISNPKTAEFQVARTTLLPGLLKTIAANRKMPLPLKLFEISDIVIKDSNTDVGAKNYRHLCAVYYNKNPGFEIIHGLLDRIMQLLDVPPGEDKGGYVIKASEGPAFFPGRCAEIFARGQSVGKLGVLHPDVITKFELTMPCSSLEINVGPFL

[2] = molecular target: T2, Exosome RNA helicase MTR4 (Homo sapiens, UniProt P42285)
T2 sequence (P42285 whole entry): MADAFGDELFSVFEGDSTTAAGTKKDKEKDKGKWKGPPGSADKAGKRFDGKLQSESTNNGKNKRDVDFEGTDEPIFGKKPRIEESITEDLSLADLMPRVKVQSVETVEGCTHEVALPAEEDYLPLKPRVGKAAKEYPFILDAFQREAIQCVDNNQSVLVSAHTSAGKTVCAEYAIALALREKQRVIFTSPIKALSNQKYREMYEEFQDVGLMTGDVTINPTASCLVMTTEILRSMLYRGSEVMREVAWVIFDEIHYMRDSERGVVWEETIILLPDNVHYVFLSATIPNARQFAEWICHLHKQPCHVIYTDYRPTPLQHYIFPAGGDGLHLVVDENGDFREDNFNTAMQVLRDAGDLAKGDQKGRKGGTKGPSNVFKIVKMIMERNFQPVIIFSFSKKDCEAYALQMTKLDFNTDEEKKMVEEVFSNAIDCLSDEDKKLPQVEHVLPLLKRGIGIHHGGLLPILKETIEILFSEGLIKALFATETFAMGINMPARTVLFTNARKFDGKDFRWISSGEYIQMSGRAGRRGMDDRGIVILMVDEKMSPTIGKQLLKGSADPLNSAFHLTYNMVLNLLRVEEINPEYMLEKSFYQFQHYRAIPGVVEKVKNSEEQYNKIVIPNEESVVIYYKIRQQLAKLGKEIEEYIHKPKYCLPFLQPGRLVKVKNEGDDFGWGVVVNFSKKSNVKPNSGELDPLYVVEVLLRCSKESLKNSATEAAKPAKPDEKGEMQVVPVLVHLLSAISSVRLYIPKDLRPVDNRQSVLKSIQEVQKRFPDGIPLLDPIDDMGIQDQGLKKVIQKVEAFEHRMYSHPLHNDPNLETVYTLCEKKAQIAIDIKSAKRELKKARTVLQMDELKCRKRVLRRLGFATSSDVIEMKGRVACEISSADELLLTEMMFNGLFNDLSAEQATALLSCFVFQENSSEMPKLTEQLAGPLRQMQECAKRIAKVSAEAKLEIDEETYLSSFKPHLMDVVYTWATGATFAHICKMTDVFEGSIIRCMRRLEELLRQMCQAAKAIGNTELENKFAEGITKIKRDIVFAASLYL

[3] = molecular target: Proto-oncogene tyrosine-protein kinase Src (Homo sapiens, UniProt P12931)
Proto-oncogene tyrosine-protein kinase Src, sequence (P12931 2-536 limits assumed): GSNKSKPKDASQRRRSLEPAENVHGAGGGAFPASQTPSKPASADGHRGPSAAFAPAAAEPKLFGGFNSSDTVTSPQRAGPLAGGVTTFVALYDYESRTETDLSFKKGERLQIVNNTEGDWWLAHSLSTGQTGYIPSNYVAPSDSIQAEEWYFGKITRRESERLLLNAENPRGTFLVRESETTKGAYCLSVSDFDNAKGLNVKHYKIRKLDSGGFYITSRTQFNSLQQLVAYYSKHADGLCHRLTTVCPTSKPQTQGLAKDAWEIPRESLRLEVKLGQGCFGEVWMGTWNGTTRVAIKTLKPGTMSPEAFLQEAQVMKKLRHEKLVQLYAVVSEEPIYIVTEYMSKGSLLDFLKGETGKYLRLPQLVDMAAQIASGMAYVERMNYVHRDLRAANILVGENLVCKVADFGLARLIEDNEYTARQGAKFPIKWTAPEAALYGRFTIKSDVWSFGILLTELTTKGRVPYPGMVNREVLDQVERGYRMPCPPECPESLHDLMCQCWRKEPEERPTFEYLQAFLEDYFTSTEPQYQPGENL

[4] = molecular target: Protein kinase C alpha type (Homo sapiens, UniProt P17252)
[5] = molecular target: Ras-related protein Rab-6A (Homo sapiens, UniProt P20340)
Ras-related protein Rab-6A, sequence (P20340 whole entry): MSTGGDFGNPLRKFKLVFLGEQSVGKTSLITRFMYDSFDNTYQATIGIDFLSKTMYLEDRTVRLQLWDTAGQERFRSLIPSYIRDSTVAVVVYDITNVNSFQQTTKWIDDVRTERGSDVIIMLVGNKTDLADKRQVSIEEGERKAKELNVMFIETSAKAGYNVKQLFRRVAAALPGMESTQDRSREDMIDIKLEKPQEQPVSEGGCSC

[6] = molecular target: RAC-gamma serine/threonine-protein kinase (Homo sapiens, UniProt Q9Y243)
RAC-gamma serine/threonine-protein kinase, sequence (Q9Y243 whole entry): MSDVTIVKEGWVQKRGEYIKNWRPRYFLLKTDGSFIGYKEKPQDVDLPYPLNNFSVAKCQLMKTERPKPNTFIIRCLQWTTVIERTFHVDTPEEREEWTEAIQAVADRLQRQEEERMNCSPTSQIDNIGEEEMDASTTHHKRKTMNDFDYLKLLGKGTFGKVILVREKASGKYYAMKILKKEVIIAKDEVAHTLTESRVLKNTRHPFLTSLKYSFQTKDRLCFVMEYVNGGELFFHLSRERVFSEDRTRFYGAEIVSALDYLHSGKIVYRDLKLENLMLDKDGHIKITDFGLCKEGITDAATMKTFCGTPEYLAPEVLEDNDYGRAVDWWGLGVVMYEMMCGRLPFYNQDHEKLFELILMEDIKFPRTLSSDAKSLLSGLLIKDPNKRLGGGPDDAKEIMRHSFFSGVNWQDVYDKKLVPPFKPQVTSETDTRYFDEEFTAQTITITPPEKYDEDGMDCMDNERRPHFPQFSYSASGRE

[7] = molecular target: Ribosomal protein S6 kinase alpha-6 (Homo sapiens, UniProt Q9UK32)
Ribosomal protein S6 kinase alpha-6, sequence (Q9UK32 whole entry): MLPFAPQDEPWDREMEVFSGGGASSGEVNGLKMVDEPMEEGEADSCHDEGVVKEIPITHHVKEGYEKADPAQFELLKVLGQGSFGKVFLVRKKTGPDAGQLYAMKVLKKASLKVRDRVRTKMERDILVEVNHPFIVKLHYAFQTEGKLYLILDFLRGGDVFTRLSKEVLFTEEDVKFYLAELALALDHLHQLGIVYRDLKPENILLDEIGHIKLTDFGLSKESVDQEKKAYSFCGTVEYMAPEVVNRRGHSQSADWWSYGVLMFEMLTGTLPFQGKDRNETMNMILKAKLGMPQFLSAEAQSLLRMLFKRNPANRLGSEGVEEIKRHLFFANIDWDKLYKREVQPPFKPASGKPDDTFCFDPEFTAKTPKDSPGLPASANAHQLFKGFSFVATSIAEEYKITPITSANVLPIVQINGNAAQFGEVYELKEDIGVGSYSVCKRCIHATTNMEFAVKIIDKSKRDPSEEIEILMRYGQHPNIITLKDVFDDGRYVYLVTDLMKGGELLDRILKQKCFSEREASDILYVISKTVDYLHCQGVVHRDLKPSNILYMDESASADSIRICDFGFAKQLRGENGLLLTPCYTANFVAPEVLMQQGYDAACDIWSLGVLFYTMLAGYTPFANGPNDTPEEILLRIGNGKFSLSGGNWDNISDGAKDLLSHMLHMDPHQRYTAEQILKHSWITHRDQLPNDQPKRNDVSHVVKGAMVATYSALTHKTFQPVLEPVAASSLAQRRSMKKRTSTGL

[8] = molecular target: Cyclin-dependent kinase 13 (Homo sapiens, UniProt Q14004)
Cyclin-dependent kinase 13, sequence (Q14004 whole entry): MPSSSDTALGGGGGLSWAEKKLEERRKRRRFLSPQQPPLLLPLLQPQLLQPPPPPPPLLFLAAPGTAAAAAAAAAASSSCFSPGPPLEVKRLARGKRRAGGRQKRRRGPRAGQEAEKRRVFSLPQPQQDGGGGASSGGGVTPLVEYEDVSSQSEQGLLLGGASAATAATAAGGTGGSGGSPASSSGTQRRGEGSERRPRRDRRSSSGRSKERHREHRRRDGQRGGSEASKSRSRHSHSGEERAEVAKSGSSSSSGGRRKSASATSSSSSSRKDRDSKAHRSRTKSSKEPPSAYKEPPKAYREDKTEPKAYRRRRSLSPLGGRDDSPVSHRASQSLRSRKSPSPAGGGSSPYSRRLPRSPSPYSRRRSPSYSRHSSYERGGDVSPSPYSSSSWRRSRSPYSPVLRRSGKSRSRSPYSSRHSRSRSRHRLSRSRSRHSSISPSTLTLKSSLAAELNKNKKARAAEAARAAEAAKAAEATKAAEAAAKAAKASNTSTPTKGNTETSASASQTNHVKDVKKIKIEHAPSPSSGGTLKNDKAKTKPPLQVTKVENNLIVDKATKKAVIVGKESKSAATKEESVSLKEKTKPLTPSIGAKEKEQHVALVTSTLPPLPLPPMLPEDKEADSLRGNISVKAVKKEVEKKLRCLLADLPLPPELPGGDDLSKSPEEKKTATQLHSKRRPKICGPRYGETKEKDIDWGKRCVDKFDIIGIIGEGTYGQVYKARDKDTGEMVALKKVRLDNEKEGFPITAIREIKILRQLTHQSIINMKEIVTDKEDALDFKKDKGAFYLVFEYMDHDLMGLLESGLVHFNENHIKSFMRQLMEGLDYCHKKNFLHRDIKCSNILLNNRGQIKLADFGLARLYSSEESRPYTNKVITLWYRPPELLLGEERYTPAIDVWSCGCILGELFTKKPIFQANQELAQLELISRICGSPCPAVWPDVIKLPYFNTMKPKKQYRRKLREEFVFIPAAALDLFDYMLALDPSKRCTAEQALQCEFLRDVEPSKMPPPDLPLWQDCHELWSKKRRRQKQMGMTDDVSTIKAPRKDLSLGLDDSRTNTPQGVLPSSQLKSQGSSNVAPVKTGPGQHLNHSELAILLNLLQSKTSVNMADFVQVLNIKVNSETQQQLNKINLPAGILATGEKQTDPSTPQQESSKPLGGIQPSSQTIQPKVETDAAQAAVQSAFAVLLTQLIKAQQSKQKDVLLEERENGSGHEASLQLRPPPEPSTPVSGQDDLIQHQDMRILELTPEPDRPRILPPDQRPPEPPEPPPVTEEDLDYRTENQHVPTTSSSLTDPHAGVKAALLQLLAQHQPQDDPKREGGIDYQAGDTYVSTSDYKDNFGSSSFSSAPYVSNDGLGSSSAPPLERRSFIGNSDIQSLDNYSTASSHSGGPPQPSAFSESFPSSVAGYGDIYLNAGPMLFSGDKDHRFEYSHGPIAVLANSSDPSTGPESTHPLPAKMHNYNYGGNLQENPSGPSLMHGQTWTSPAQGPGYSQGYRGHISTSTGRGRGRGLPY

Wee1-like protein kinase = Wee1-like protein kinase (Homo sapiens, UniProt P30291)
Wee1-like protein kinase, sequence (P30291 whole entry): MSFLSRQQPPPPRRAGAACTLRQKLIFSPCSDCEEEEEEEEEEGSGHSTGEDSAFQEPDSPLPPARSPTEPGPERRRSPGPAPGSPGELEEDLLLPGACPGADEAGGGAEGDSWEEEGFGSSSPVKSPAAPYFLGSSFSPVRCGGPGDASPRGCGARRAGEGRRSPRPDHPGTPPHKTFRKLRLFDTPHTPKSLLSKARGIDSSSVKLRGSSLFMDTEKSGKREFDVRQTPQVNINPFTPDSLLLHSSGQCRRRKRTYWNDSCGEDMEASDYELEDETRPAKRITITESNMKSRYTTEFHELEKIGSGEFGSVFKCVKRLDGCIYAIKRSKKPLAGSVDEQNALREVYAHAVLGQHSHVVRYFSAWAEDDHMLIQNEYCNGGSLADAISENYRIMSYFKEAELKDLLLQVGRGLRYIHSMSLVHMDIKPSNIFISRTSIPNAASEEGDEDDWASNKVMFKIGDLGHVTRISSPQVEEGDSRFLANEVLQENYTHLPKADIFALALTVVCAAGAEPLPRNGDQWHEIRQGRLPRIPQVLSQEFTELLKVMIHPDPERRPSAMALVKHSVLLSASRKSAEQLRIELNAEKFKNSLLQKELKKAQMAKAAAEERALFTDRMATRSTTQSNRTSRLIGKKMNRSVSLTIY

[9] = molecular target: T3, Serine/threonine-protein kinase TAO3 (Homo sapiens, UniProt Q9H2K8)
T3 sequence (Q9H2K8 whole entry): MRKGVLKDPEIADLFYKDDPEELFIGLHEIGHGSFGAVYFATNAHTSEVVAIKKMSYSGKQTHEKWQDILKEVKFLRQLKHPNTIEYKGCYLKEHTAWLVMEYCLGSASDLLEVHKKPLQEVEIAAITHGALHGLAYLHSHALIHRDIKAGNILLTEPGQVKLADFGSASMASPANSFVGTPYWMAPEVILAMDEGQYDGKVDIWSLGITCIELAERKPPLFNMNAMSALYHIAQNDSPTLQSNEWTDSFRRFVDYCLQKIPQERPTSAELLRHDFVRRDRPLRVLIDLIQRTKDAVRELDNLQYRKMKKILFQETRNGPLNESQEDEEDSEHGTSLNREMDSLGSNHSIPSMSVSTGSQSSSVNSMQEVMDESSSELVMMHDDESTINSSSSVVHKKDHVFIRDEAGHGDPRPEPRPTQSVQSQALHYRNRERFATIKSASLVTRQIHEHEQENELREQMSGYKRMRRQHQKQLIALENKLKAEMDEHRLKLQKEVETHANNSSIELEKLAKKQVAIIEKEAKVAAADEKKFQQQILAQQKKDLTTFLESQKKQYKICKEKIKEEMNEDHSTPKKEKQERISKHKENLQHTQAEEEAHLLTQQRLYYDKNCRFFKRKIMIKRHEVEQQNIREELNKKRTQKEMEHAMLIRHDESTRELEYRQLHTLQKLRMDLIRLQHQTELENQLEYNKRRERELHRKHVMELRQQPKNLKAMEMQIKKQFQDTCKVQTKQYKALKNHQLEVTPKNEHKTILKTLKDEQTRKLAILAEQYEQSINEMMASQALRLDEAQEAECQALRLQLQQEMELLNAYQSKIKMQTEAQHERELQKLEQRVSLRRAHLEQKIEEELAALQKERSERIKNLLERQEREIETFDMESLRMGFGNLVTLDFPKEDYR

Adenosine kinase = Adenosine kinase (Homo sapiens, UniProt P55263)
Also: in the data inactive means no Kd found up to 30 µM.

| SMILES | Kd [1] | Kd [2] | Kd [3] | Kd [4] | Kd [5] | Kd [6] | Kd [7] | Kd [8] | Kd (Wee1-like protein kinase) | Kd [9] | Kd (Adenosine kinase) |
| --- | --- | --- | --- | --- | --- | --- | --- | --- | --- | --- | --- |
| Cc1nc(NC(=O)N2CCC[C@H]2C(N)=O)sc1-c1ccnc(C(C)(C)C(F)(F)F)c1 [ALPELISIB] | > 30 µM (inactive) | > 30 µM (inactive) | > 30 µM (inactive) | > 30 µM (inactive) | > 30 µM (inactive) | > 30 µM (inactive) | > 30 µM (inactive) | > 30 µM (inactive) | > 30 µM (inactive) | > 30 µM (inactive) | > 30 µM (inactive) |
| Cc1csc(-c2nnc(Nc3ccc(Oc4ncccc4-c4ccnc(N)n4)cc3)c3ccccc23)c1 [AMG-900] | > 30 µM (inactive) | > 30 µM (inactive) | > 30 µM (inactive) | > 30 µM (inactive) | > 30 µM (inactive) | > 30 µM (inactive) | > 30 µM (inactive) | 2.51 µM | > 30 µM (inactive) | 1.77 µM (active) | > 30 µM (inactive) |
| C=CC(=O)Nc1cc2c(Nc3ccc(F)c(Cl)c3)ncnc2cc1C#CC(C)(C)N1CCN(C)CC1 [AV-412 FREE BASE] | > 30 µM (inactive) | > 30 µM (inactive) | > 30 µM (inactive) | > 30 µM (inactive) | > 30 µM (inactive) | > 30 µM (inactive) | > 30 µM (inactive) | > 30 µM (inactive) | > 30 µM (inactive) | > 30 µM (inactive) | > 30 µM (inactive) |
| NC(=O)Nc1cc(-c2cccc(F)c2)sc1C(=O)N[C@H]1CCCNC1 [AZD-7762] | > 30 µM (inactive) | > 30 µM (inactive) | 0.109 µM (active) | > 30 µM (inactive) | > 30 µM (inactive) | > 30 µM (inactive) | 1.51 µM (active) | > 30 µM (inactive) | > 30 µM (inactive) | > 30 µM (inactive) | > 30 µM (inactive) |
| Cc1cc(C(=O)NOCCO)c(Nc2ccc(I)cc2F)n(C)c1=O [AZD-8330] | > 30 µM (inactive) | > 30 µM (inactive) | > 30 µM (inactive) | > 30 µM (inactive) | > 30 µM (inactive) | > 30 µM (inactive) | > 30 µM (inactive) | > 30 µM (inactive) | > 30 µM (inactive) | > 30 µM (inactive) | > 30 µM (inactive) |
| Cn1cnc2c(F)c(Nc3ccc(Br)cc3F)c(C(=O)NOCCO)cc21 [BINIMETINIB] | > 30 µM (inactive) | > 30 µM (inactive) | > 30 µM (inactive) | > 30 µM (inactive) | > 30 µM (inactive) | > 30 µM (inactive) | > 30 µM (inactive) | > 30 µM (inactive) | > 30 µM (inactive) | > 30 µM (inactive) | > 30 µM (inactive) |
| O=C(Nc1nc2cccc(-c3ccc(CN4CCS(=O)(=O)CC4)cc3)n2n1)C1CC1 [FILGOTINIB] | > 30 µM (inactive) | > 30 µM (inactive) | > 30 µM (inactive) | > 30 µM (inactive) | > 30 µM (inactive) | > 30 µM (inactive) | > 30 µM (inactive) | > 30 µM (inactive) | > 30 µM (inactive) | > 30 µM (inactive) | > 30 µM (inactive) |

Now from value to compound:

| Kd [1] | Kd [2] | Kd [3] | Kd [4] | Kd [5] | Kd [6] | Kd [7] | Kd [8] | Kd (Wee1-like protein kinase) | Kd [9] | Kd (Adenosine kinase) | SMILES |
| --- | --- | --- | --- | --- | --- | --- | --- | --- | --- | --- | --- |
| > 30 µM (inactive) | > 30 µM (inactive) | > 30 µM (inactive) | > 30 µM (inactive) | > 30 µM (inactive) | > 30 µM (inactive) | > 30 µM (inactive) | > 30 µM (inactive) | > 30 µM (inactive) | > 30 µM (inactive) | > 30 µM (inactive) | CCn1c(C(=O)N(C2CC2)C2CC2)cc2c3c(ncn3C)c(Nc3cc(C)n(C)n3)nc21 [BMS-911543] |
| > 30 µM (inactive) | > 30 µM (inactive) | > 30 µM (inactive) | > 30 µM (inactive) | > 30 µM (inactive) | > 30 µM (inactive) | > 30 µM (inactive) | > 30 µM (inactive) | > 30 µM (inactive) | > 30 µM (inactive) | > 30 µM (inactive) | COc1cc2ncnc(Oc3cccc(NC(=O)Nc4cc(C(C)(C)C(F)(F)F)on4)c3)c2cc1OC [CEP-32496] |
| > 30 µM (inactive) | > 30 µM (inactive) | > 30 µM (inactive) | > 30 µM (inactive) | > 30 µM (inactive) | > 30 µM (inactive) | > 30 µM (inactive) | > 30 µM (inactive) | > 30 µM (inactive) | > 30 µM (inactive) | > 30 µM (inactive) | Cc1cc(Nc2ncc(Cl)c(Nc3ccccc3S(=O)(=O)C(C)C)n2)c(OC(C)C)cc1C1CCNCC1 [CERITINIB] |
| > 30 µM (inactive) | > 30 µM (inactive) | > 30 µM (inactive) | > 30 µM (inactive) | > 30 µM (inactive) | > 30 µM (inactive) | > 30 µM (inactive) | > 30 µM (inactive) | > 30 µM (inactive) | > 30 µM (inactive) | > 30 µM (inactive) | COc1c(OCCCN2CCOCC2)ccc2c1N=C(NC(=O)c1cnc(N)nc1)N1CCN=C21 [COPANLISIB] |
| > 30 µM (inactive) | > 30 µM (inactive) | > 30 µM (inactive) | > 30 µM (inactive) | > 30 µM (inactive) | > 30 µM (inactive) | > 30 µM (inactive) | > 30 µM (inactive) | > 30 µM (inactive) | > 30 µM (inactive) | > 30 µM (inactive) | COCC(=O)NC/C=C/c1ccc2ncnc(Nc3ccc(Oc4ccc(C)nc4)c(C)c3)c2c1 [CP-724714] |
| > 30 µM (inactive) | > 30 µM (inactive) | > 30 µM (inactive) | > 30 µM (inactive) | > 30 µM (inactive) | > 30 µM (inactive) | > 30 µM (inactive) | > 30 µM (inactive) | > 30 µM (inactive) | > 30 µM (inactive) | > 30 µM (inactive) | C#Cc1cccc(Nc2ncnc3cc(OC)c(OCCCCCCC(=O)NO)cc23)c1 [CUDC-101] |
